Assay results taken from patent publication US11999746B2, “Compounds” (GlaxoSmithKline Intellectual Property Development Limited, priority 2014, dated 2024).

What was measured:
Lp-PLA2 in human plasma = biological target: T1, Lp-PLA2 in human plasma (Homo sapiens, UniProt Q13093); test: (3a) Lp-PLA2 human plasma Thio-PAF assay; assay type: biochemical; conditions: (3a) Thio-PAF assay, pooled human plasma; Examples 1-265 and 413-430 were tested here; read-out: pIC50 in the Lp-PLA2 human plasma assay (converted)
T1 construct: from tissue; host or cells: pooled human plasma
T1 sequence (Q13093 22-441): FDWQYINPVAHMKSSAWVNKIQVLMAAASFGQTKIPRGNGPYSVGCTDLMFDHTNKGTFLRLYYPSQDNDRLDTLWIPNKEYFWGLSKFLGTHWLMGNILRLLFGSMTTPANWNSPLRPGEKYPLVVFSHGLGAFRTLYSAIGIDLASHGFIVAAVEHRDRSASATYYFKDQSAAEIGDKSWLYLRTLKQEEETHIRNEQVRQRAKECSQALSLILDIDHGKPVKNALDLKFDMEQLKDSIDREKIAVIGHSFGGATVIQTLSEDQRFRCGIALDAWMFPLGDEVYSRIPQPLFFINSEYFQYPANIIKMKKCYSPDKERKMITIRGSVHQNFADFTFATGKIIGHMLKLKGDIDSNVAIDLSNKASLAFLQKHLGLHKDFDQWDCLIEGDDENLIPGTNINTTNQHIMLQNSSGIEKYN
From the text: (3) Lipoprotein-Associated Phospholipase A2 (Lp-PLA2) Human Plasma Assay
The human plasma assay utilizes a thioester analog of PAF (phosphatidylcholine), where hydrolysis yields to the formation of a phospholipid containing a free thiol group. The amount of thiol is quantitated continuously by reacting with CPM (7-diethylamino-3-(4′-maleimidylphenyl)-4-methylcoumarin), a maleimide which increases in fluoresence after Michael addition of thiols. This assay may detect the activity of Lp-PLA2 in human plasma, as determined by specific inhibition by Lp-PLA2 inhibitors.
The thio-PAF assay was run as a quenched 15 μL assay. Compounds source plate was prepared by making 1:3 (by volume) serial dilution of the compounds into pure DMSO on 384-well microplate. 0.01 μL of compounds on compound source plate were transferred to 384 well Greiner 784076 (black) low-volume plates by ECHO liquid dispenser. 8 μL pooled human plasma, which was previously aliquoted and frozen, was added. Plates were centrifuged for 10 sec at 500 rpm. After 30 minutes preincubation, 2 μL of substrate solution comprising 2.5 mM 2-thio-PAF [from ethanol stock], 32 μM CPM [from a DMSO stock] and 3.2 mM NEM (N-ethylmaleimide) [made fresh daily in DMSO] in assay buffer of 50 mM HEPES, pH 7.4, 150 mM NaCl, 1 mM CHAPS was added to 384 well Greiner 784076 (black) low-volume plates by BRAVO liquid handling station. After 2 mins, reaction was quenched with 5 μL of 5% aqueous trifluoroacetic acid (TFA). Plates were covered to protect from light and incubated for 40 min at room temperature. Plates were read at ex: 380/em: 485 using Envision microplate reader. PIC50 data, curve and QC analysis were conducted by using XLFit module in Excel.

[1] = biological target: T2, recombinant human Lp-PLA2 (Homo sapiens, UniProt Q13093); test: (1a) PED6 assay, recombinant human Lp-PLA2 (rhLp-PLA2); assay type: biochemical; conditions: Examples 1-167 and 413-430 were tested here, one experiment or average of multiple experiments, read-out: rhLp-PLA2 (pIC50) (converted)
T2 sequence (Q13093 22-441): T1 sequence (Q13093 22-441)
From the text: (1) Recombinant Human Lp-PLA2 Assays (rhLp-PLA2)
N-((6-(2,4-Dinitrophenyl)amino)-hexanoyl)-2-(4,4-difluoro-5,7-dimethyl-4-bora-3a,4a-diaza-s-indacene-3-pentanoyl)-1-hexadecanoyl-sn-glycero-3-phosphoethanolamine, triethylammonium salt (PED6) is a commercially available fluorescently-labeled phospholipid, which is commercially available from Invitrogene and Molecular Probes. There is a quenching […] and a Bodipy fluorescein (FL) group in the sn2 position. Upon cleavage with Lp-PLA2, the Bodipy FL group is liberated and then may result in an increase in fluorescence. Inhibitors of Lp-PLA2 therefore prevent this cleavage and no fluorescent increase is observed.
The PED6 assay was run as an unquenched 10 μL assay. The source plate containing the compounds to be tested was prepared by making 1:3 (by volume) serial dilution of the compounds within DMSO on 384-well microplate. Then, 0.01 μL of the compounds on compound source plate were transferred into 384 well Greiner 784076 (black) plates using ECHO liquid dispenser. 5 μL of recombinant human Lp-PLA2 enzyme (4 nM) rhLp-PLA2 in assay buffer of 50 mM HEPES, pH 7.4, 150 mM NaCl, 1 mM CHAPS) was added to each well of the plate. Plates were centrifuged for 10 sec at 500 rpm. After 30 minutes preincubation, 5 μL of substrate (4 μM PED6 [from 5 mM DMSO stock] in assay buffer of 50 mM HEPES, pH 7.4, 150 mM NaCl, 1 mM CHAPS) was added to 384 well Greiner 784076 (black) plates. Plates were centrifuged for 10 sec at 500 rpm. The plate was covered to protect it from light and incubated for 20 min at room temperature. The plates were read for fluorescence intensity at ex: 480/em: 540 using ViewLux microplate imager for Envision spectrofluroimeters. pIC50 data, curve and QC analysis was conducted by using XL fit module in Excel.

SMILES	IC50 (Lp-PLA2 in human plasma)	IC50 [1]
O=c1nc(OCc2cc(F)c(Oc3ccnc(C(F)(F)F)c3)c(F)c2)cc2n1CC1OCCCN21 (single isomer, unassigned) [Example E162, 7-((3,5-difluoro-4-((2-(trifluoromethyl)pyridin-4-yl)oxy)benzyl)oxy)-3,4,11,11a-tetrahydropyrimido[6′,1′:2,3]imidazo[5,1-b][1,3]oxazin-9(2H)-one]	≤ 100 nM	≤ 1 nM
O=c1nc(OCc2cc(F)c(Oc3ccnc(C(F)(F)F)c3)c(F)c2)cc2n1CC1OCCCN21 (single isomer, unassigned) [Example E163, 7-((3,5-difluoro-4-((2-(trifluoromethyl)pyridin-4-yl)oxy)benzyl)oxy)-3,4,11,11a-tetrahydropyrimido[6′,1′:2,3]imidazo[5,1-b][1,3]oxazin-9(2H)-one]	≤ 10000 nM	≤ 100 nM
O=c1nc(OCc2cc(F)c(Oc3ccnc(C(F)(F)F)c3)c(F)c2)cc2n1CC1OCCN21 (single isomer, unassigned) [Example E164, 6-((3,5-difluoro-4-((2-(trifluoromethyl)pyridin-4-yl)oxy)benzyl)oxy)-10,10a-dihydro-2H-oxazolo[3′,2′:3,4]imidazo[1,2-c]pyrimidin-8(3H)-one]	≤ 100 nM	≤ 1 nM
O=c1nc(OCc2cc(F)c(Oc3ccnc(C(F)(F)F)c3)c(F)c2)cc2n1CC1OCCN21 (single isomer, unassigned) [Example E165, 6-((3,5-difluoro-4-((2-(trifluoromethyl)pyridin-4-yl)oxy)benzyl)oxy)-10,10a-dihydro-2H-oxazolo[3′,2′:3,4]imidazo[1,2-c]pyrimidin-8(3H)-one]	≤ 100 nM	≤ 100 nM
CN1c2cc(OCc3cccc(F)c3)nc(=O)n2CC12CCC2 [Example 413]	≤ 10000 nM	≤ 100 nM
CN1c2cc(OCc3cc(F)c(F)c(F)c3)nc(=O)n2CC12CCCC2 [Example 414, 1′-methyl-7′-((3,4,5-trifluorobenzyl)oxy)-1′H-spiro[cyclopentane-1,2′-imidazo[1,2-c]pyrimidin]-5′(3′H)-one]	≤ 100 nM	≤ 100 nM
CN1c2cc(OCc3cc(F)c(F)cc3F)nc(=O)n2CC12CCCC2 [Example 415, 1-methyl-7′-((2,4,5-trifluorobenzyl)oxy)-1′H-spiro[cyclopentane-1,2′-imidazo[1,2-c]pyrimidin]-5′(3′H)-one]	≤ 10000 nM	≤ 100 nM
CN1c2cc(OCc3ccc(F)cc3F)nc(=O)n2CC12CCC2 [Example 416, 7′4(2,4-difluorobenzyhoxy)-1-methyl-1H-spiro[cyclobutane-1,2′-imidazo[1,2-c]pyrimidin]-5′(3′H)-one]	≤ 10000 nM	≤ 100 nM
CN1c2cc(OCc3cccc(F)c3)nc(=O)n2CC12CCCCC2 [Example 417]	≤ 10000 nM	≤ 100 nM
CN1c2cc(OCc3cccc(F)c3)nc(=O)n2CC12CCCC2 [Example 418]	≤ 100 nM	≤ 100 nM
CN1c2cc(OCc3ccc(F)cc3F)nc(=O)n2CC12CCCC2 [Example 419, 7′4(2,4-difluorobenzyhoxy)-1-methyl-1H-spiro[cyclopentane-1,2′-imidazo[1,2-c]pyrimidin]-5′(3′H)-one]	≤ 10000 nM	≤ 100 nM
CN1c2cc(OCc3cccc(F)c3F)nc(=O)n2CC12CCC2 [Example 420, 7′4(2,3-difluorobenzyhoxy)-1-methyl-1H-spiro[cyclobutane-1,2′-imidazo[1,2-c]pyrimidin]-5′(3′H)-one]	≤ 10000 nM	≤ 100 nM
CN1c2cc(OCc3cc(F)c(F)c(F)c3)nc(=O)n2CC12CCCCC2 [Example 422, 1′-methyl-7′-((3,4,5-trifluorobenzyl)oxy)-1′H-spiro[cyclohexane-1,2′-imidazo[1,2-c]pyrimidin]-5′(3′H)-one]	≤ 10000 nM	≤ 100 nM
CN1c2cc(OCc3cc(F)c(F)c(F)c3)nc(=O)n2CC12CCC2 [Example 423, 1′-methyl-7′-((3,4,5-trifluorobenzyl)oxy)-1′H-spiro[cyclobutane-1,2′-imidazo[1,2-c]pyrimidin]-5′(3′H)-one]	≤ 100 nM	≤ 100 nM
CN1c2cc(OCc3cccc(F)c3F)nc(=O)n2CC12CCCCC2 [Example 425, 7′4(2,3-difluorobenzyhoxy)-1-methyl-1H-spiro[cyclohexane-1,2′-imidazo[1,2-c]pyrimidin]-5′(3′H)-one]	≤ 10000 nM	≤ 100 nM
CN1c2cc(OCc3cccc(F)c3F)nc(=O)n2CC12CCCC2 [Example 426, 7′4(2,3-difluorobenzyhoxy)-1-methyl-1H-spiro[cyclopentane-1,2′-imidazo[1,2-c]pyrimidin]-5′(3′H)-one]	≤ 100 nM	≤ 100 nM
CN1c2cc(OCc3ccc(F)cc3F)nc(=O)n2CC12CCCCC2 [Example 427, 7′4(2,4-difluorobenzyhoxy)-1-methyl-1H-spiro[cyclohexane-1,2′-imidazo[1,2-c]pyrimidin]-5′(3′H)-one]	≤ 10000 nM	≤ 100 nM
CN1c2cc(OCc3cc(F)c(F)cc3F)nc(=O)n2CC12CCCCC2 [Example 428, 1-methyl-7′-((2,4,5-trifluorobenzyl)oxy)-1′H-spiro[cyclohexane-1,2′-imidazo[1,2-c]pyrimidin]-5′(3′H)-one]	≤ 10000 nM	≤ 100 nM
CN1c2cc(OCc3cc(F)c(F)cc3F)nc(=O)n2CC12CCC2 [Example 429, 1-methyl-7′-((2,4,5-trifluorobenzyl)oxy)-1′H-spiro[cyclobutane-1,2′-imidazo[1,2-c]pyrimidin]-5′(3′H)-one]	≤ 10000 nM	≤ 100 nM
CN(Cc1ccc(F)cc1F)c1cc2n(c(=O)n1)C[C@@H]1CCCCN21 [Example E61, (S)-3-((2,4-Difluorobenzyl)(methyl)amino)-6,7,8,9,9a,10-hexahydro-1H-pyrido[1′,2′:3,4] imidazo[1,2-c]pyrimidin-1-one]		≤ 100 nM
O=c1nc(OCc2cc(F)c(Oc3ccnc(C(F)(F)F)c3)c(F)c2)cc2n1C[C@H]1CCCN21 [Example E67, (R)-3-((3,5-difluoro-4-((2-(trifluoromethyl)pyridin-4-yl)oxy)benzyl)oxy)-7,8,8a, 9-tetra hydropyrrolo[1′,2′:3,4]imidazo[1,2-c]pyrimidin-1(6H)-one]		≤ 1 nM
O=c1nc(OCc2cc(F)c(Oc3ccnc(C(F)(F)F)c3)c(F)c2)cc2n1C[C@@H]1CCCN21 [Example E71, (S)-3-((3,5-difluoro-4-((2-(trifluoromethyl)pyridin-4-yl)oxy)benzyl)oxy)-7,8,8a, 9-tetra hydropyrrolo[1′,2′:3,4]imidazo[1,2-c]pyrimidin-1(6H)-one]		≤ 1 nM
